Experimental data from patent US20090099029A1, “Methods and substrates for conducting assays” (Invitrogen Corporation, priority 2005, published 2009).
Like-named read-outs stand apart in the source and are kept apart here.

Key:
Assay in all cases: Further analysis of a plurality of inhibitors and a plurality of kinases (Table 5 inhibition results)
Format in all cases: biochemical
Parameters in all cases: scale not given here
[1] = target: kinases of Table 5 (Homo sapiens, UniProt Q7KZI7); details: kinase MARK2 (Part I, plate C4, Domain 1); inhibitor 100 uM
Source text: (§1) The wash solution is then discarded.

[2] = target: kinases of Table 5 (Homo sapiens, UniProt P68400); details: for Inhibition Results (Level): kinase CSNK2A1 (Part II, plate D9, Domain 0)
Source text: as §1

[3] = target: T1, kinases of Table 5 (Homo sapiens, UniProt Q13043); details: for Inhibition level: kinase STK4; for Inhibition Results (Level): kinase STK4 (Part II, plate D6, Domain 1)
T1 sequence (Q13043 1-487): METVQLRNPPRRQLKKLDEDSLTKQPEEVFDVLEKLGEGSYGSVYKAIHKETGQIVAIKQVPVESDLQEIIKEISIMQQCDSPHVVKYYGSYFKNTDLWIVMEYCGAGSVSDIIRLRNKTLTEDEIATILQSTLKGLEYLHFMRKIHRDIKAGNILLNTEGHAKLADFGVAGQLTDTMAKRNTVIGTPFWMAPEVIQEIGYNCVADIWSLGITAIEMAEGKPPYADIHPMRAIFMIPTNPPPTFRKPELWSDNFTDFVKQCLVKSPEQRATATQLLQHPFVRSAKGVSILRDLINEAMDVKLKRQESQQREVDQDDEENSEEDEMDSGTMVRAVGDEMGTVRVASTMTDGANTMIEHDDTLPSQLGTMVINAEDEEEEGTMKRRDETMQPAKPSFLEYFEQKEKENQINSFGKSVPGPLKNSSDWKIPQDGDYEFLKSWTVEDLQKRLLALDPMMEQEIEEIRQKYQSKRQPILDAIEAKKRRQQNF
Source text: as §1

[4] = target: kinases of Table 5 (Homo sapiens, UniProt Q9UIK4); details: for Inhibition level: kinase DAPK2; for Inhibition Results (Level): kinase DAPK2 (Part II, plate H3, Domain 1)
Source text: as §1

[5] = target: kinases of Table 5 (Homo sapiens, UniProt O75716); details: kinase STK16 (Part I, plate C3, Domain 1)
Source text: as §1

[6] = target: T2, kinases of Table 5 (Homo sapiens, UniProt Q9Y616); details: kinase IRAK3 (Part I, plate C9, Domain 1); inhibitor 100 uM
T2 sequence (Q9Y616 1-596): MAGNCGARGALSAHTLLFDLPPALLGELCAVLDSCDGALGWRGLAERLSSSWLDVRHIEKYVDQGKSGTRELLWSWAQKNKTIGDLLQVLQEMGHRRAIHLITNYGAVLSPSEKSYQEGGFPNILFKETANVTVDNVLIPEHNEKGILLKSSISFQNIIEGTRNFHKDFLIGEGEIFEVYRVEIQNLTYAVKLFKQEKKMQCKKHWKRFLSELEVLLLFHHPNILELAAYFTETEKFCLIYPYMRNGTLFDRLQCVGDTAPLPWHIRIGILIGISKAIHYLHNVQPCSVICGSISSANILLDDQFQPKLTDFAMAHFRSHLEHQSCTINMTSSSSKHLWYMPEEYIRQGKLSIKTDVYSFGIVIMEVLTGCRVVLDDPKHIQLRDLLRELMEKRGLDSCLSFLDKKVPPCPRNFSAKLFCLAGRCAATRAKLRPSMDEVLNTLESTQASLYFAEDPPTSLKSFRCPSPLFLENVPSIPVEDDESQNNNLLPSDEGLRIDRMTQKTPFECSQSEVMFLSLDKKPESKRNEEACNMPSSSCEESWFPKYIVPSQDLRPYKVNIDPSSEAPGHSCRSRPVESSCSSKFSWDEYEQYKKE
Source text: as §1

[7] = target: kinases of Table 5 (Homo sapiens, UniProt P11309)
Source text: as §1

[8] = target: kinases of Table 5 (Homo sapiens, UniProt Q14289); details: kinase PTK2B (Part I, plate G5, Domain 1)
Source text: as §1

[9] = target: kinases of Table 5 (Homo sapiens, UniProt Q13627); details: kinase DYRK1A (Part I, plate G6, Domain 1)
Source text: as §1

[10] = target: T3, kinases of Table 5 (Homo sapiens, UniProt P54753); details: for Inhibition level: kinase EPHB3; for Inhibition Results (Level): kinase EPHB3 (Part II, plate B5, Domain 1)
T3 sequence (P54753 34-998): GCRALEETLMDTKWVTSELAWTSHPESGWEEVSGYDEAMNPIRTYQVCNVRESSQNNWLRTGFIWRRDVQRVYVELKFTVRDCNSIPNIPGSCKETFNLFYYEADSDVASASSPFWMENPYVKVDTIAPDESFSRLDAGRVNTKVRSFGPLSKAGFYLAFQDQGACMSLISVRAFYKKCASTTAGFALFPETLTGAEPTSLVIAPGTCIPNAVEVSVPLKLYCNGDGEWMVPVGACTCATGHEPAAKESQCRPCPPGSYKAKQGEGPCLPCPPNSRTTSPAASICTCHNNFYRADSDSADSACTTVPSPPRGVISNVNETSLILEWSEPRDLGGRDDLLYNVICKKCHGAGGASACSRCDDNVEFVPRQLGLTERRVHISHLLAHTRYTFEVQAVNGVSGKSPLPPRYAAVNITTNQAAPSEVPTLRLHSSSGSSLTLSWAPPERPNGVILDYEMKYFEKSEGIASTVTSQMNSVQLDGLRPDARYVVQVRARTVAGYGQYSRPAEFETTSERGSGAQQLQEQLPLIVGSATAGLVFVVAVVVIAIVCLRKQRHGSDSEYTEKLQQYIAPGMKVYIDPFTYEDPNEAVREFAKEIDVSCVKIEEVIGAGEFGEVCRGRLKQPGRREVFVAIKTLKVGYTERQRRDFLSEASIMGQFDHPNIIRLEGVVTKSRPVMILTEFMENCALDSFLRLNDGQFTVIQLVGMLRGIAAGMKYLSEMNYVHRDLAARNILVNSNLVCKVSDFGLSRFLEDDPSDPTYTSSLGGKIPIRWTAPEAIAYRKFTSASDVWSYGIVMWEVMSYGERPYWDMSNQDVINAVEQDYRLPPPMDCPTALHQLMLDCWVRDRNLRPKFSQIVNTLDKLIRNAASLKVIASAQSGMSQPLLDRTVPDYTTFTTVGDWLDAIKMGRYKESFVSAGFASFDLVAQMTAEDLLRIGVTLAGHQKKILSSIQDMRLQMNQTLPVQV
Source text: as §1

[11] = target: kinases of Table 5 (Homo sapiens, UniProt Q9Y6R4); details: kinase MAP3K4 (Part I, plate E7, Domain 1); inhibitor 100 uM
Source text: as §1

[12] = kinase CSNK2A1, inhibitor 100 uM
[13] = kinase PIM1 (Part I, plate C2, Domain 1), inhibitor 100 uM
[14] = kinase CSNK2A1, concentration not given

kinases of Table 5 (Homo sapiens, UniProt Q9UIK4), sequence (Q9UIK4 whole entry): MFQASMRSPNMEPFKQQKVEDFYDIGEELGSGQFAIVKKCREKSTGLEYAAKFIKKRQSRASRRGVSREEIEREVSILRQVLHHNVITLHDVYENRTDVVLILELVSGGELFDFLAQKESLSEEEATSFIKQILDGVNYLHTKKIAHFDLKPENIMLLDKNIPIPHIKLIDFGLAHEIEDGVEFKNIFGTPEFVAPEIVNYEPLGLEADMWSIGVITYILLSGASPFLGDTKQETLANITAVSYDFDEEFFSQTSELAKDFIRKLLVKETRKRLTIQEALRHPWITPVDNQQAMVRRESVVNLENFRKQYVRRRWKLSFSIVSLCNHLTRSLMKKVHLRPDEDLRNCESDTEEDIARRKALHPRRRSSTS
kinases of Table 5 (Homo sapiens, UniProt Q7KZI7), sequence (Q7KZI7 whole entry): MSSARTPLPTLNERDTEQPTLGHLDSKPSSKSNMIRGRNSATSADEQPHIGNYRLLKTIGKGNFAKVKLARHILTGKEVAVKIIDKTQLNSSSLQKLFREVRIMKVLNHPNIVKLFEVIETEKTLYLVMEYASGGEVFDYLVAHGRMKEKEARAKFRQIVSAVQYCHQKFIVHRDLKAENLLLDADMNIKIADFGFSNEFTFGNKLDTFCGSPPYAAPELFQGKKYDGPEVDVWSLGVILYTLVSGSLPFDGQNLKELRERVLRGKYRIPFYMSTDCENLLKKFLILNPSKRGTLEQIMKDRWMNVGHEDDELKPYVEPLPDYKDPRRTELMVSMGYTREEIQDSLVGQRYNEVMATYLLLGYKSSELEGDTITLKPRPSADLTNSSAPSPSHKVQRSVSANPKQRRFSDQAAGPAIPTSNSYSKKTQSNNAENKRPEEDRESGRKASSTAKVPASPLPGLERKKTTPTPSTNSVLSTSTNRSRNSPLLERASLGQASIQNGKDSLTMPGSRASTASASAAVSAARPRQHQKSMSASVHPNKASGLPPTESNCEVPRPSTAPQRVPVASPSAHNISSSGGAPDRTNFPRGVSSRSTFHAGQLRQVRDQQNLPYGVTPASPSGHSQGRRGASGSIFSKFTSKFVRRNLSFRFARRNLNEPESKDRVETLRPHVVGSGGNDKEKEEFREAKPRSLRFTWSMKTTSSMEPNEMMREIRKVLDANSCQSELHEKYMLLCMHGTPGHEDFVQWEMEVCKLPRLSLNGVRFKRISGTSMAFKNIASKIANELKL
kinases of Table 5 (Homo sapiens, UniProt Q14289), sequence (Q14289 whole entry): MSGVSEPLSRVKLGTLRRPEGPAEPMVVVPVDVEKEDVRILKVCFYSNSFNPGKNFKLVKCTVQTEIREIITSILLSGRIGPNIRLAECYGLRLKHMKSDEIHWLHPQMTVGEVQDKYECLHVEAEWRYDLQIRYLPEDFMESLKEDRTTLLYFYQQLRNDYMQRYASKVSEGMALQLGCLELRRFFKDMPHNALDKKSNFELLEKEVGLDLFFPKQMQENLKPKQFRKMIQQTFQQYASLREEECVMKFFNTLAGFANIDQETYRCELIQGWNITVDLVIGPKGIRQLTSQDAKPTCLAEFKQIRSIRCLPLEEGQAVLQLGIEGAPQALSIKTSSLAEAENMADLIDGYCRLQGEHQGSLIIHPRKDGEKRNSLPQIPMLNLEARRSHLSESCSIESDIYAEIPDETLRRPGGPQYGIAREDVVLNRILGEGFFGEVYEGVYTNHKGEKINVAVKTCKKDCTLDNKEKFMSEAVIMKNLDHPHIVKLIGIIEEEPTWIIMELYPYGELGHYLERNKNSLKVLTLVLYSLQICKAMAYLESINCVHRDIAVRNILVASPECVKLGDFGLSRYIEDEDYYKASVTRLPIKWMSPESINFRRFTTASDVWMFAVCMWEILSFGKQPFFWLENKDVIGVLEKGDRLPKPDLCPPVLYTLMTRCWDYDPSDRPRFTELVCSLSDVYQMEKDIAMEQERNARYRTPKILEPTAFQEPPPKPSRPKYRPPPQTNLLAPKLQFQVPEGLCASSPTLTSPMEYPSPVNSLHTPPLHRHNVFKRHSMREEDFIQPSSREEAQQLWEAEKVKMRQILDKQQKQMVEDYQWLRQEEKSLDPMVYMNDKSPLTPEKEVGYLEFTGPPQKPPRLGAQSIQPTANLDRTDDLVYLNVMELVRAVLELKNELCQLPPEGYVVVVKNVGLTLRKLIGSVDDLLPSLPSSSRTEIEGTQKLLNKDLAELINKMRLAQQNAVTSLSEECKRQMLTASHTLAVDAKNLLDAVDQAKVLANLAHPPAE
kinases of Table 5 (Homo sapiens, UniProt P11309), sequence (P11309 whole entry): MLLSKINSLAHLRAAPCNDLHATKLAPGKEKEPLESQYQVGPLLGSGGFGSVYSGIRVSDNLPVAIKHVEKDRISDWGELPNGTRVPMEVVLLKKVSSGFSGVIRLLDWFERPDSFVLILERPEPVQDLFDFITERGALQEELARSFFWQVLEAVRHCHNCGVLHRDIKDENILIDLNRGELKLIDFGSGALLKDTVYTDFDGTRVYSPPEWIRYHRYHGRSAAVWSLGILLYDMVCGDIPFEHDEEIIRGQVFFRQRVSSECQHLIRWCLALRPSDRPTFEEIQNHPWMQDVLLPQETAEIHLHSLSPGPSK
kinases of Table 5 (Homo sapiens, UniProt O75716), sequence (O75716 whole entry): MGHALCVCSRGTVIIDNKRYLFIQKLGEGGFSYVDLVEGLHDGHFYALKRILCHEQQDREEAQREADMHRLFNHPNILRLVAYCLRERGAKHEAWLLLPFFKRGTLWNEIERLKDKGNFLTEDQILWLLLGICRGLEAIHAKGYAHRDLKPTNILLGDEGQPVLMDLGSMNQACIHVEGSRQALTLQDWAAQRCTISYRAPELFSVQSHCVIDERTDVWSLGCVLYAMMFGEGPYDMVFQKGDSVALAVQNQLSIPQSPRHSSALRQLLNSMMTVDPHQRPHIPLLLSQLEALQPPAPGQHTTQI
kinases of Table 5 (Homo sapiens, UniProt P68400), sequence (P68400 whole entry): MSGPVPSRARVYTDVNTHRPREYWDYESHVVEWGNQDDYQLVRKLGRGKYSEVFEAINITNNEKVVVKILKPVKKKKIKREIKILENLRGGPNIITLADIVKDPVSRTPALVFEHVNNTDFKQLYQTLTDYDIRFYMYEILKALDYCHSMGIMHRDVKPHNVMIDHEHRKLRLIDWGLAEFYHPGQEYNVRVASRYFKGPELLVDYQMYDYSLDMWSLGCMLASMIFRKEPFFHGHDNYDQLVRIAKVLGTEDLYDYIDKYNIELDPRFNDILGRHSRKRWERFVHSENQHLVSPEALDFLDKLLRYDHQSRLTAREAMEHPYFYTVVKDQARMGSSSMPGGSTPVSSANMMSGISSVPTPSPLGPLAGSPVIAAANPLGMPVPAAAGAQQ
kinases of Table 5 (Homo sapiens, UniProt Q9Y6R4), sequence (Q9Y6R4 whole entry): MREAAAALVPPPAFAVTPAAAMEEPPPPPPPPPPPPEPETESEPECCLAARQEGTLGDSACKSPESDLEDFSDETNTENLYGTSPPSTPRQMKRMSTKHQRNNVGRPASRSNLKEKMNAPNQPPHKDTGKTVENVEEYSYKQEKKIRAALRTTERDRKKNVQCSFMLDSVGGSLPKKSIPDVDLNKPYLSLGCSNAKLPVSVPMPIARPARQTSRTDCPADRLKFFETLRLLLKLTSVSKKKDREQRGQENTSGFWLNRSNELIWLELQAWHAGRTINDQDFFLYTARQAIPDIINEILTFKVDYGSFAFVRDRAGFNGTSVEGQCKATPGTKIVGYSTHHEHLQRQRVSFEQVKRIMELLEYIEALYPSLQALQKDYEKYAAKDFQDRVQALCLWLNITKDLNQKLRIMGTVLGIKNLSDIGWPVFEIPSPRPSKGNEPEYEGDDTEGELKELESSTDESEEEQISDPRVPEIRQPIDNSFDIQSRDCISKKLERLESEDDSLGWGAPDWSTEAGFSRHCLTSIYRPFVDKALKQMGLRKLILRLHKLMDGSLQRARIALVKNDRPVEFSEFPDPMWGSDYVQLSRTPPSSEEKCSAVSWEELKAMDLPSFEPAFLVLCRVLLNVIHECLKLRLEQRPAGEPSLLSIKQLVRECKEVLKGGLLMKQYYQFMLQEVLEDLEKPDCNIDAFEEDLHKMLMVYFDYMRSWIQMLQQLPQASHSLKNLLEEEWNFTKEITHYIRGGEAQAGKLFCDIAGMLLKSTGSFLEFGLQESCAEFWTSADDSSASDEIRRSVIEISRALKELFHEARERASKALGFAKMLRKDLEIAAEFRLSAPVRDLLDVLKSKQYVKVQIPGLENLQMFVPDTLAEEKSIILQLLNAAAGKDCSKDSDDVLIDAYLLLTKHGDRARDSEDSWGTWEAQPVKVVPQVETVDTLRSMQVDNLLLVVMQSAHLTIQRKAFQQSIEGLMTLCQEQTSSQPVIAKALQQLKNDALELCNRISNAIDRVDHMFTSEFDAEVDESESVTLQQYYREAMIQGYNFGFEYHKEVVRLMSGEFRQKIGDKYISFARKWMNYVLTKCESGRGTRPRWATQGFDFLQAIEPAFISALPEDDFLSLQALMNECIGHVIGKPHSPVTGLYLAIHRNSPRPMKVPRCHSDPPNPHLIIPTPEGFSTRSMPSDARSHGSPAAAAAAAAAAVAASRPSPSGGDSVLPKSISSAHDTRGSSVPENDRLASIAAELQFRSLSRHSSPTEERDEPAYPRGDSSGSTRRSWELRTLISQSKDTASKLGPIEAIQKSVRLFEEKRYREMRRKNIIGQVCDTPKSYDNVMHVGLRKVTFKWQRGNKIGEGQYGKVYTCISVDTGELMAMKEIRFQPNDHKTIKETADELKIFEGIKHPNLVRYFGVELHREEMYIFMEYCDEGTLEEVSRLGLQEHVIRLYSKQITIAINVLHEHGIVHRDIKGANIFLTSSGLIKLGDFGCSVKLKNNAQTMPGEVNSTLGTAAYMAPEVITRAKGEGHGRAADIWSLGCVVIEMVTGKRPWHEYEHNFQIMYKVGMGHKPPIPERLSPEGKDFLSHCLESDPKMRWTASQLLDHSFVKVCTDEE

Inhibition Results (Level) [1] | Inhibition level [2, 12] | Inhibition level ([3]; inhibitor 100 uM) | Inhibition level ([4]; inhibitor 100 uM) | Inhibition Results (Level) ([5]; inhibitor 100 uM) | Inhibition Results (Level) [6] | Inhibition Results (Level) [7, 13] | Inhibition Results (Level) ([8]; inhibitor 100 uM) | Inhibition Results (Level) ([9]; inhibitor 100 uM) | Inhibition level ([10]; inhibitor 100 uM) | Inhibition Results (Level) [11] | Inhibition level ([3]; concentration not given) | Inhibition level ([4]; concentration not given) | Inhibition level ([10]; concentration not given) | Structure (SMILES) | Inhibition Results (Level) ([3]; inhibitor 100 uM) | Inhibition Results (Level) ([4]; inhibitor 100 uM) | Inhibition Results (Level) ([10]; inhibitor 100 uM) | other results
2 | 2 | 1 | 0 | 0 | 2 | 1 | 2 | 0 | 2 | 1 |  |  |  | COc1cc2ncnc(Nc3cccc(Cl)c3)c2cc1OC [AG 1478] |  |  |  | 
2 | 2 | 0 | 2 | 0 | 2 | 2 | 2 | 2 | 2 | 1 | 0 | 0 | 0 | O=c1c(-c2ccc(O)cc2)coc2cc(O)cc(O)c12 [Genistein] |  |  |  | Inhibition level [2, 14]: 0; Inhibition Results (Level) ([5]; inhibitor <3.7 mM): 0; Inhibition Results (Level) ([7]; kinase PIM1 (Part I, plate C2, Domain 1), inhibitor <3.7 mM): 0; Inhibition Results (Level) ([9]; inhibitor <3.7 mM): 1
2 |  |  |  | 2 | 0 | 2 | 1 | 2 |  | 1 |  |  |  | O=S(=O)(NCCNC/C=C/c1ccc(Br)cc1)c1cccc2cnccc12 [H-89] | 2 | 2 | 1 | Inhibition Results (Level) ([2]; inhibitor 100 uM): 0
2 | 2 | 2 | 2 | 2 | 2 | 2 | 2 | 1 | 2 | 2 |  |  |  | CC(C)(C)n1nc(-c2ccc(Cl)cc2)c2c(N)ncnc21 [PP2] |  |  |  | 
2 | 2 | 2 | 2 | 1 | 2 | 0 | 2 | 2 | 2 | 2 | 0 | 2 | 0 | Cn1cc(C2=C(c3cn(CCCSC(=N)N)c4ccccc34)C(=O)NC2=O)c2ccccc21 [Ro-31-8220] |  |  |  | Inhibition level [2, 14]: 0; Inhibition Results (Level) ([5]; inhibitor 90 uM): 2; Inhibition Results (Level) ([7]; kinase PIM1 (Part I, plate C2, Domain 1), inhibitor 90 uM): 2; Inhibition Results (Level) ([8]; inhibitor 90 uM): 0; Inhibition Results (Level) ([9]; inhibitor 90 uM): 0

Structure (SMILES) | Inhibition Results (Level) [1] | Inhibition level [2, 12] | Inhibition level ([3]; inhibitor 100 uM) | Inhibition level ([4]; inhibitor 100 uM) | Inhibition Results (Level) ([5]; inhibitor 100 uM) | Inhibition Results (Level) [6] | Inhibition Results (Level) [7, 13] | Inhibition Results (Level) ([8]; inhibitor 100 uM) | Inhibition Results (Level) ([9]; inhibitor 100 uM) | Inhibition level ([10]; inhibitor 100 uM) | Inhibition Results (Level) [11] | Inhibition level ([3]; concentration not given) | Inhibition level ([4]; concentration not given) | Inhibition level ([10]; concentration not given) | Inhibition Results (Level) ([3]; inhibitor 100 uM) | Inhibition Results (Level) ([4]; inhibitor 100 uM) | Inhibition Results (Level) ([10]; inhibitor 100 uM) | other results
N#C/C(=C/c1ccc(O)c(O)c1)C(=O)NCc1ccccc1 [AG 490] | 2 | 2 | 0 | 2 | 0 | 0 | 2 | 2 | 2 | 2 | 2 |  |  |  |  |  |  | 
O=c1c(O)c(-c2ccc(O)c(O)c2)oc2cc(O)cc(O)c12 [Quercetin] |  |  |  |  | 0 | 0 |  | 1 |  |  | 0 |  |  |  | 0 | 0 | 2 | 
CC(=O)c1c(O)c(C)c(O)c(Cc2c(O)c3c(c(C(=O)/C=C/c4ccccc4)c2O)OC(C)(C)C=C3)c1O [Rottlerin (Mallotoxin)] | 2 |  |  |  | 0 | 2 | 2 | 2 | 0 |  | 1 |  |  |  | 0 | 1 | 2 | Inhibition Results (Level) ([2]; inhibitor 100 uM): 2
CN[C@@H]1C[C@H]2O[C@@](C)([C@@H]1OC)n1c3ccccc3c3c4c(c5c6ccccc6n2c5c31)C(=O)NC4 [Staurosporine] |  |  |  |  |  |  |  |  |  |  |  | 0 | 2 | 0 |  |  |  | Inhibition level [2]: 2; Inhibition Results (Level) ([5]; inhibitor 21.5 uM): 2; Inhibition Results (Level) [7]: 2; Inhibition Results (Level) ([8]; inhibitor 21.5 uM): 0
